# Test results taken from PubChem BioAssay (NCI).
#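 Interpolation was linear, between the two tested concentrations surrounding the appropriate level; five concentrations were tested over 48 hours in 96-well plates. GI50 marks 50% less growth. TGI is the concentration that stops growth completely.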
# What was measured:
# Assay in all cases: NCI tumour cell line growth inhibition, 48 h
# SN12C renal = system: SN12C renal
# MALME-3M melanoma = system: MALME-3M melanoma
# HL-60(TB) leukemia = system: HL-60(TB) leukemia
# ACHN renal = system: ACHN renal
# MOLT-4 leukemia = system: MOLT-4 leukemia
# CAKI-1 renal = system: CAKI-1 renal
# OVCAR-8 ovarian = system: OVCAR-8 ovarian
# COLO 205 colon = system: COLO 205 colon
# UACC-257 melanoma = system: UACC-257 melanoma
# SR leukemia = system: SR leukemia
# OVCAR-5 ovarian = system: OVCAR-5 ovarian
# UO-31 renal = system: UO-31 renal
# SK-MEL-28 melanoma = system: SK-MEL-28 melanoma
# SK-MEL-2 melanoma = system: SK-MEL-2 melanoma
# HOP-62 NSCLC = system: HOP-62 NSCLC
# NCI-H23 lung = system: NCI-H23 lung
# HOP-92 NSCLC = system: HOP-92 NSCLC
# IGROV1 ovarian = system: IGROV1 ovarian
# SF-295 CNS = system: SF-295 CNS
# KM12 colon = system: KM12 colon
# MDA-MB-435 = system: MDA-MB-435
# T-47D breast = system: T-47D breast
# A549 NSCLC = system: A549 NSCLC
# OVCAR-3 ovarian = system: OVCAR-3 ovarian
# MCF7 breast = system: MCF7 breast
# SK-OV-3 ovarian = system: SK-OV-3 ovarian
# RXF 393 renal = system: RXF 393 renal
# HS 578T breast = system: HS 578T breast
# SW-620 colon = system: SW-620 colon
# M14 melanoma = system: M14 melanoma
# NCI-H522 lung = system: NCI-H522 lung
# PC-3 prostate = system: PC-3 prostate
# HT29 colon = system: HT29 colon
# NCI-H460 lung = system: NCI-H460 lung
# HCC-2998 colon = system: HCC-2998 colon
# SNB-75 CNS = system: SNB-75 CNS
# OVCAR-4 ovarian = system: OVCAR-4 ovarian
# U251 CNS = system: U251 CNS
# SF-539 CNS = system: SF-539 CNS
# MDA-MB-231 breast = system: MDA-MB-231 breast
# DU-145 prostate = system: DU-145 prostate
# A498 renal = system: A498 renal
# RPMI-8226 leukemia = system: RPMI-8226 leukemia
# HCT-116 colon = system: HCT-116 colon
# NCI-H226 lung = system: NCI-H226 lung
# TK-10 renal = system: TK-10 renal
# UACC-62 melanoma = system: UACC-62 melanoma
# LOX IMVI melanoma = system: LOX IMVI melanoma
# SF-268 CNS = system: SF-268 CNS
# CCRF-CEM leukemia = system: CCRF-CEM leukemia
# SK-MEL-5 melanoma = system: SK-MEL-5 melanoma
# BT-549 breast = system: BT-549 breast
# NCI/ADR-RES ovarian = system: NCI/ADR-RES ovarian
# SNB-19 CNS = system: SNB-19 CNS
# EKVX NSCLC = system: EKVX NSCLC
# HCT-15 colon = system: HCT-15 colon
# 786-0 renal = system: 786-0 renal
smiles,measurement,setting,value
Clc1ccc(-c2ccc(CNCC3CCNCC3)o2)c(-c2ccccc2)c1,GI50,SN12C renal,1540 nM
same,TGI,SN12C renal,3030 nM
same,GI50,MALME-3M melanoma,1880 nM
same,TGI,MALME-3M melanoma,3540 nM
same,GI50,HL-60(TB) leukemia,1800 nM
same,TGI,HL-60(TB) leukemia,3690 nM
same,GI50,ACHN renal,1670 nM
same,TGI,ACHN renal,3060 nM
same,GI50,MOLT-4 leukemia,1540 nM
same,TGI,MOLT-4 leukemia,3420 nM
same,GI50,CAKI-1 renal,1510 nM
same,TGI,CAKI-1 renal,2900 nM
same,GI50,OVCAR-8 ovarian,1870 nM
same,TGI,OVCAR-8 ovarian,3500 nM
same,GI50,COLO 205 colon,1640 nM
same,TGI,COLO 205 colon,3360 nM
same,GI50,UACC-257 melanoma,2030 nM
same,TGI,UACC-257 melanoma,3570 nM
same,GI50,SR leukemia,347 nM
same,TGI,SR leukemia,1270 nM
same,GI50,OVCAR-5 ovarian,1610 nM
same,TGI,OVCAR-5 ovarian,3040 nM
same,GI50,UO-31 renal,1370 nM
same,TGI,UO-31 renal,2760 nM
same,GI50,SK-MEL-28 melanoma,1790 nM
same,TGI,SK-MEL-28 melanoma,3270 nM
same,GI50,SK-MEL-2 melanoma,1760 nM
same,TGI,SK-MEL-2 melanoma,3310 nM
same,GI50,HOP-62 NSCLC,1650 nM
same,TGI,HOP-62 NSCLC,3270 nM
same,GI50,NCI-H23 lung,1710 nM
same,TGI,NCI-H23 lung,3320 nM
same,GI50,HOP-92 NSCLC,1010 nM
same,TGI,HOP-92 NSCLC,2230 nM
same,GI50,IGROV1 ovarian,1390 nM
same,TGI,IGROV1 ovarian,2930 nM
same,GI50,SF-295 CNS,1570 nM
same,TGI,SF-295 CNS,3000 nM
same,GI50,KM12 colon,1790 nM
same,TGI,KM12 colon,3620 nM
same,GI50,MDA-MB-435,1610 nM
same,TGI,MDA-MB-435,3050 nM
same,GI50,T-47D breast,1740 nM
same,TGI,T-47D breast,3820 nM
same,GI50,A549 NSCLC,1790 nM
same,TGI,A549 NSCLC,3560 nM
same,GI50,OVCAR-3 ovarian,1740 nM
same,TGI,OVCAR-3 ovarian,3460 nM
same,GI50,MCF7 breast,1560 nM
same,TGI,MCF7 breast,3300 nM
same,GI50,SK-OV-3 ovarian,1870 nM
same,TGI,SK-OV-3 ovarian,3330 nM
same,GI50,RXF 393 renal,1360 nM
same,TGI,RXF 393 renal,2790 nM
same,GI50,HS 578T breast,1630 nM
same,TGI,HS 578T breast,3420 nM
same,GI50,SW-620 colon,1380 nM
same,TGI,SW-620 colon,2960 nM
same,GI50,M14 melanoma,1630 nM
same,TGI,M14 melanoma,3110 nM
same,GI50,NCI-H522 lung,1850 nM
same,TGI,NCI-H522 lung,3630 nM
same,GI50,PC-3 prostate,1380 nM
same,TGI,PC-3 prostate,2760 nM
same,GI50,HT29 colon,1440 nM
same,TGI,HT29 colon,2890 nM
same,GI50,NCI-H460 lung,1710 nM
same,TGI,NCI-H460 lung,3330 nM
same,GI50,HCC-2998 colon,1620 nM
same,TGI,HCC-2998 colon,3200 nM
same,GI50,SNB-75 CNS,1390 nM
same,TGI,SNB-75 CNS,2810 nM
same,GI50,OVCAR-4 ovarian,1850 nM
same,TGI,OVCAR-4 ovarian,3540 nM
same,GI50,U251 CNS,1560 nM
same,TGI,U251 CNS,3010 nM
same,GI50,SF-539 CNS,1650 nM
same,TGI,SF-539 CNS,3120 nM
same,GI50,MDA-MB-231 breast,1360 nM
same,TGI,MDA-MB-231 breast,2850 nM
same,GI50,DU-145 prostate,1820 nM
same,TGI,DU-145 prostate,3330 nM
same,GI50,A498 renal,1710 nM
same,TGI,A498 renal,3240 nM
same,GI50,RPMI-8226 leukemia,1300 nM
same,TGI,RPMI-8226 leukemia,3190 nM
same,GI50,HCT-116 colon,1240 nM
same,TGI,HCT-116 colon,2540 nM
same,GI50,NCI-H226 lung,1660 nM
same,TGI,NCI-H226 lung,3680 nM
same,GI50,TK-10 renal,1620 nM
same,TGI,TK-10 renal,3130 nM
same,GI50,UACC-62 melanoma,1750 nM
same,TGI,UACC-62 melanoma,3270 nM
same,GI50,LOX IMVI melanoma,1540 nM
same,TGI,LOX IMVI melanoma,3030 nM
same,GI50,SF-268 CNS,1620 nM
same,TGI,SF-268 CNS,3270 nM
same,GI50,CCRF-CEM leukemia,557 nM
same,TGI,CCRF-CEM leukemia,2310 nM
same,GI50,SK-MEL-5 melanoma,1660 nM
same,TGI,SK-MEL-5 melanoma,3050 nM
same,GI50,BT-549 breast,1710 nM
same,TGI,BT-549 breast,3200 nM
same,GI50,NCI/ADR-RES ovarian,1710 nM
same,TGI,NCI/ADR-RES ovarian,3300 nM
same,GI50,SNB-19 CNS,1640 nM
same,TGI,SNB-19 CNS,3160 nM
same,GI50,EKVX NSCLC,1590 nM
same,TGI,EKVX NSCLC,2950 nM
same,GI50,HCT-15 colon,1190 nM
same,TGI,HCT-15 colon,2600 nM
same,GI50,786-0 renal,1580 nM
same,TGI,786-0 renal,3010 nM
